# Assay results as given in US12383542B2, “Methods of treating ovarian cancer” (TESARO, INC., priority 2016, dated 2025).
# “And” between values parts separate entries of the source, which are not always exact repeats. Identical values can stand only once. Counter-ions that a name gives are not always drawn. Like-named read-outs stand apart in the source and are kept apart here.
# Columns and labels:
# [1] = system: advanced BRCA-mutant ovarian cancer; conditions: cited from earlier work
# ovarian cancer [2] = conditions: relatively small sample size; cited from earlier work
# [3] = system: platinum-sensitive epithelial ovarian cancer; conditions: cited from earlier work
# ovarian cancer [4] = conditions: cited from earlier work
# ovarian cancer [5] = conditions: cited from earlier work; remark: listed apart in the source
# PARP activity [6] = conditions: tumor homogenates
# PARP activity [7] = experiment: cells
# PARP activity [8] = conditions: mice dosed with niraparib
# [9] = in vivo
# Procedure: Patients with ovarian cancer regardless of platinum sensitivity and burden of disease were randomized to either Group A or Group B with 6 patients assigned to each group. […] In Group B, patients fasted for at least 10 hours before consuming a high fat meal.
# [10] = system: platinum-sensitive recurrent ovarian cancer; conditions: for patients with PFS events at the time of unblinding: patients entering with PR; for Time to second subsequent treatment, HR: <40% of events
# [11] = From the text: Patients continued to receive their assigned treatment until disease progression, unacceptable toxicity, death, withdrawal of consent, and/or lost to follow-up. Dose interruption and/or reduction were available at any time for any grade toxicity considered intolerable by the patient.
# Dose interruption and/or reduction could be implemented at any time for any grade toxicity considered intolerable by the patient. Treatment was required to be interrupted for any non-hematologic AE that was Grade 3 or 4, per NCI CTCAE v.4.02 if the Investigator considered the event to be related to administration of study drug. If toxicity was appropriately resolved to baseline or Grade 1 or less within 28 days, the patient was allowed to restart treatment with study drug, but with a dose level reduction according to Table 4, if prophylaxis was not considered feasible.
# [12] = system: Ewing's sarcoma, ALL, NSCLC, SCLC cell lines and tumor cell lines carrying homozygous inactivation of the ATM gene
# [13] = system: cancer cell lines that have been silenced for BRCA-1 or BRCA-2, or carry BRCA-1 or BRCA-2 mutations
# [14] = system: MDA-MB-436, CAPAN-1, GRANTA-519, OVCAR3, HT29, DLD-1, patient derived Ewing's sarcoma and TNBC xenograft models; conditions: xenograft models in mice
# [15] = HRDneg group, listed as Niraparib
# [16] = all patients treated with niraparib
compound,measurement,setting,value
"CNCc1ccc(-c2[nH]c3cc(F)cc4c3c2CCNC4=O)cc1 [rucaparib, 8-fluoro-2-{4-[(methylamino)methyl]phenyl}-1,3,4,5-tetrahydro-6H-azepino[5,4,3-cd]indol-6-one ((1S,4R)-7,7-dimethyl-2-oxobicyclo[2.2.1]hept-1-yl)methanesulfonic acid salt]",Response assessment by independent radiology review,"[1]; 600 mg orally twice daily, 106 patients",42%
same,median DOR,[1]; independent radiology review,6.7 months
same,Investigator-assessed ORR,[1]; platinum-refractory patients,0%
same,Investigator-assessed ORR,[1]; platinum-resistant patients,25%
same,Investigator-assessed ORR,[1]; platinum-sensitive patients,66%
"C[C@]1(c2nc3c(C(N)=O)cccc3[nH]2)CCCN1 [veliparib, 2-[(R)-2-methylpyrrolidin-2-yl]-1H-benzimidazole-4-carboxamide]",effect on the progression of ovarian cancer,ovarian cancer [2],unable to show any effect
"O=C(c1cc(Cc2n[nH]c(=O)c3ccccc23)ccc1F)N1CCN(C(=O)C2CC2)CC1 [olaparib, 4-[(3-{[4-(cyclopropylcarbonyl)piperazin-1-yl]carbonyl}-4-fluorophenyl)methyl]phthalazin-1(2H)-one]",serious adverse events versus control group,"[3]; human, in vivo",more common
same,change in overall survival,"[3]; women with germline BRCA mutations, versus placebo or no treatment",no significant change
same,responses,ovarian cancer [4]; 17 patients with BRCA1 or BRCA2 mutations,7
same,responses,ovarian cancer [4]; 46 patients without these mutations,11
same,Median PFS,ovarian cancer [5]; patients with BRCA mutations,11.2 months
same,planned analysis of the subset of patients with BRCA mutations,ovarian cancer [5]; phase II maintenance study,a clear advantage
"NC(=O)c1cccc2cn(-c3ccc([C@@H]4CCCNC4)cc3)nc12 [niraparib, (3S)-3-[4-{7-(aminocarbonyl)-2H-indazol-2-yl}phenyl]piperidine]",target engagement (PARP activity),PARP activity [6],Target engagement has also been demonstrated
same,IC50,PARP activity [7]; read-out: IC50 of PARP activity in cells,~0.004 µM
same,IC90,PARP activity [7]; read-out: inhibitory concentration at 90% of control (IC90),~0.05 µM
same,PARP activity in PBMCs,PARP activity [8],Inhibition of PARP activity
same,bioavailability in fed versus fasted state,[9],substantially similar
same,% of Patients without Progression or Death at 6 Months,[10]; HRDneg group,54%
same,% of Patients without Progression or Death at 12 Months,[10]; HRDneg group,27%
same,% of Patients without Progression or Death at 18 Months,[10]; HRDneg group,19%
same,% of Patients without Progression or Death at 12 Months,[10]; [15],27%
same,% of Patients without Progression or Death at 18 Months,[10]; [15],19%
same,% of Patients without Progression or Death at 6 Months,[10]; HRDpos group,69%
same,% of Patients without Progression or Death at 12 Months,[10]; HRDpos group,51%
same,% of Patients without Progression or Death at 18 Months,[10]; HRDpos group,37%
same,chemotherapy-free interval,"[10]; both cohorts, versus placebo",significantly improved
same,time to first subsequent treatment,"[10]; both cohorts, versus placebo",significantly improved
same,"Overall Survival, HR","[10]; combined cohorts, data immature, 80% of patients censored","HR 0.73 (95% CI: 0.480, 1.125)"
same,Median PFS,"[10]; combined study population (gBRCAmut and non-gBRCAmut), exploratory pooled analysis",11.3 months
same,"PFS by niraparib dose of longest duration (100, 200, 300 mg)",[10]; gBRCAmut and non-gBRCAmut cohorts,consistent with the overall population
same,% of Patients without Progression or Death at 6 Months,[10]; gBRCAmut cohort,80%
same,% of Patients without Progression or Death at 12 Months,[10]; gBRCAmut cohort,62%
same,% of Patients without Progression or Death at 18 Months,[10]; gBRCAmut cohort,50%
same,Median PFS,[10]; gBRCAmut cohort,21.0 Months
same,progression-free survival 2,[10]; gBRCAmut cohort,25.8 months
same,Median PFS,"[10]; gBRCAmut cohort, listed as Niraparib","21.0 Months and 21.0 (12.9, NE) Months"
same,patients with PFS events at the time of unblinding,[10]; gBRCAmut,45%
same,"Time to second subsequent treatment, HR","[10]; gBRCAmut, data immature","HR 0.48 (95% CI: 0.272, 0.851)"
same,impact of treatment on OS,[10]; in vivo,no detrimental impact
same,% of Patients without Progression or Death at 6 Months,[10]; non-gBRCAmut cohort,61%
same,% of Patients without Progression or Death at 12 Months,[10]; non-gBRCAmut cohort,41%
same,% of Patients without Progression or Death at 18 Months,[10]; non-gBRCAmut cohort,30%
same,Median PFS,"[10]; non-gBRCAmut, HRD negative",6.9 Months
same,Median PFS,"[10]; non-gBRCAmut, HRD negative, listed as Niraparib","6.9 Months and 6.9 (5.6, 9.6) Months"
same,Median PFS,"[10]; non-gBRCAmut, HRD-positive",12.9 Months
same,Median PFS,"[10]; non-gBRCAmut, HRD-positive, listed as Niraparib","12.9 Months and 12.9 (8.1, 15.9) Months"
same,Median PFS,"[10]; non-gBRCAmut, HRDpos/BRCAwt",9.3 Months
same,Median PFS,"[10]; non-gBRCAmut, HRDpos/somatic BRCAmut",20.9 Months
same,patients with PFS events at the time of unblinding,[10]; non-gBRCAmut,56%
same,"Time to second subsequent treatment, HR","[10]; non-gBRCAmut, data immature","HR 0.74 (95% CI: 0.519, 1.066)"
same,Median PFS,[10]; overall non-gBRCAmut cohort,9.3 Months
same,median PFS 2,[10]; overall non-gBRCAmut cohort,18.64 months
same,Median PFS,"[10]; overall non-gBRCAmut cohort, listed as Niraparib","9.3 Months and 9.3 (7.2, 11.2) Months"
same,PFS2-PFS1 (efficacy of next-line treatment),"[10]; pooled cohorts, versus placebo",similar
same,rate of MDS/AML,[11]; ITT population,1.3%
same,treatment-emergent grade 3/4 anemia,[11]; [16],24.8%
same,treatment-emergent grade 3/4 neutropenia,[11]; [16],11.2%
same,treatment-emergent grade 3/4 thrombocytopenia,[11]; [16],28.3%
same,grade 5 events,"[11]; human, in vivo, 300 mg QD",No grade 5 events occurred
same,TEAEs leading to dose reduction,[11]; in vivo,67%
same,TEAEs leading to treatment discontinuation,[11]; in vivo,15%
same,TEAEs leading to treatment interruption,[11]; in vivo,69%
same,grade 3 or 4 bleeding event,[11]; in vivo,No patient
same,incidence of CTCAE Grade ≥3 TEAEs,[11]; in vivo,74%
same,incidence of SAEs,[11]; in vivo,30%
same,incidence of treatment-related TEAEs,[11]; in vivo,98%
same,patients remaining on niraparib for the duration of the study,[11]; in vivo,~85%
same,patients with at least 1 TEAE,[11]; in vivo,all patients
same,mean platelet count over time,"[11]; overall niraparib treated population, after decrease by day 15",generally returned to near baseline by Cycle 4
same,incidence of MDS/AML,[11]; patients who received niraparib (5 of 367),1.4% and 1%
same,cytotoxicity,[12],selectively cytotoxic
same,consequence on cell cycle,[13]; BRCA-defective cells,cell cycle arrest in G2/M followed by apoptosis
same,anti-proliferative activity,[13]; compared to wild type counterparts,selective anti-proliferative activity
same,activity on normal human cells,normal human cells,weak activity
same,antitumor activity,[14],strong antitumor activity
